Structures are written as SMILES.

Experimental findings from BindingDB's records for patent US20250214967 (Berrybio (Shanghai), 2025) are described below.

For this assay, the target named is Focal adhesion kinase 1 (Homo sapiens, UniProt Q05397). Nature of the assay: FAK Kinase Assay. As for the experimental part:
The inhibitory activity of a compound against FAK was determined in a buffer containing 5 mM HEPES, pH 7.5, 0.01% Triton, 0.5 mM EGTA, and 0.01% BRIJ™-35 in a 384-well assay plate. The assay was carried out in the presence of the FAK at 1 nM and ATP at 6.8 μM using fluorescein-polyGT (0.2 μM) as an FAK substrate. Each assay mixture was incubated at room temperature for 30 min. A LANTHASCREEN Tb-PY20 antibody was added to each well to stop the enzymatic reaction. The plate was incubated at room temperature for 60 min before reading on an ENVISION using TR-FRET module (excitation at 340 nm and emission at 520 nm and 495 nm).

Focal adhesion kinase 1, sequence (Q05397 whole entry): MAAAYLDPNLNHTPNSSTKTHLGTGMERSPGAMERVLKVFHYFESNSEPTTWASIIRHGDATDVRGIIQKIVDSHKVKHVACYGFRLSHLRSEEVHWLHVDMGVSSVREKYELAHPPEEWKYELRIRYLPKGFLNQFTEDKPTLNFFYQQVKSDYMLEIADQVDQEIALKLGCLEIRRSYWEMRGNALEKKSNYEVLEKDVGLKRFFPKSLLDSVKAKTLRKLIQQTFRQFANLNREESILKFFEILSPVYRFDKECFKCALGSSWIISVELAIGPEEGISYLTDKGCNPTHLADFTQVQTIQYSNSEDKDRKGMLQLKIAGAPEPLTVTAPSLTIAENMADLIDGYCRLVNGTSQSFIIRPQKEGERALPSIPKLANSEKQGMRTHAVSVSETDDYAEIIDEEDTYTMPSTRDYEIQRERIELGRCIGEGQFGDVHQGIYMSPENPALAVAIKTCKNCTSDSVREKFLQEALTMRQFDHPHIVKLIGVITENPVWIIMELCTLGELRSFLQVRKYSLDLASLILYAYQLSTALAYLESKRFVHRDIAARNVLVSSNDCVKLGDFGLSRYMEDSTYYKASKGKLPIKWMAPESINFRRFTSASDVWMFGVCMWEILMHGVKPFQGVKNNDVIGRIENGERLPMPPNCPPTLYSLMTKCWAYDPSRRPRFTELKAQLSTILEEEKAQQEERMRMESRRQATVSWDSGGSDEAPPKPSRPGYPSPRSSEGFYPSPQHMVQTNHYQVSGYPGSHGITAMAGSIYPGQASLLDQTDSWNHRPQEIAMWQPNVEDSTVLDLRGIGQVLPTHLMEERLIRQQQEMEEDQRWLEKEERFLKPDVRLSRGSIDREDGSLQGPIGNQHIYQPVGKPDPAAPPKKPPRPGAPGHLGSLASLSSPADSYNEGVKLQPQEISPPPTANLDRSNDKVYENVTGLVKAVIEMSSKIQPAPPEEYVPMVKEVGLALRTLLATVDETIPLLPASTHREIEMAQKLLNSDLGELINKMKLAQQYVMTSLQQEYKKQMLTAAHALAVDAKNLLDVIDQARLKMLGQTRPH

One may read the IC50 as the point on the concentration scale where inhibition reaches its midpoint. A higher IC50 goes with lower potency. The compound `Cc1cc(Cc2ncc(C(F)(F)F)c(NCC3C=C(N(C)S(C)(=O)=O)CCC3)n2)ccc1OCCOCCOCCOc1ccc2c(c1)C(=O)N(C1CCC(=O)NC1=O)C2=O` (stereo unspecified) [US20250214967, Compound A2] registered an IC50 of 3 nM.
